Assays:
CETP [1] = target: T1, CETP (Homo sapiens, UniProt P11597); test: CETP fluorescence test with enriched CETP; format: biochemical; details: enriched CETP fraction from human plasma; transfer of fluorescent cholesterol ester between liposomes; 37° C. for 4 h
T1 construct: CETP is obtained in partially purified form from human plasma by differential centrifugation and column chromatography and used for the test; from tissue; host or cells: human plasma
T1 sequence (P11597 18-493): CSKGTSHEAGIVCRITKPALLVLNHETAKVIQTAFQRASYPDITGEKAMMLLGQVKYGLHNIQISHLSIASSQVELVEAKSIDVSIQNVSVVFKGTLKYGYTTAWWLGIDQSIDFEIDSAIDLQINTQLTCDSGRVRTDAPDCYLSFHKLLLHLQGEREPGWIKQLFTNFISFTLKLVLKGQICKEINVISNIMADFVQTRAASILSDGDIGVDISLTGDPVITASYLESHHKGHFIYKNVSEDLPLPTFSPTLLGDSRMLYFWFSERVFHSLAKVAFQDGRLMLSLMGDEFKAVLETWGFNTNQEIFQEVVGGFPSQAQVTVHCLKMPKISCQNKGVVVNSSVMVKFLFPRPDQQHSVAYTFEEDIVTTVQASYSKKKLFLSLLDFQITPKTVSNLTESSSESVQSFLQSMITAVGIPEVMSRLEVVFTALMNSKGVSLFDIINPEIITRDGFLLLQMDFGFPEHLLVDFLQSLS
Description: (§1) CETP is obtained in partially purified form from human plasma by differential centrifugation and column chromatography and used for the test. To this end, human plasma is adjusted to a density of 1.21 g per ml using NaBr and centrifuged at 4° C. at 50 000 rpm for 18 h. The bottom fraction (d>1.21 g/ml) is applied to a Phenyl-Sepharose 26/10 HP fast flow-column (Pharmacia), washed with PBS buffer and then eluted with distilled water. 10 parts of PBS buffer and 1% (w/v) BSA are added to the eluate. The CETP-active fractions are pooled.
Measurement of the CETP-catalyzed transfer of a fluorescent cholesterol ester between liposomes [modified according to the procedure of Bisgaier et al., J. Lipid Res. 34, 1625 (1993)]:
For the production of the donor liposomes, 1 mg of cholesteryl 4,4-difluoro-5,7-dimethyl-4-bora-3a,4a-diaza-s-indacene-3-dodecanoate (cholesteryl BODIPY® FL C12, Molecular Probes) is dissolved in 2 ml of chloroform with 5.35 mg of triolein and 6.67 mg of phosphatidylcholine. The solvent is removed at medium temperature in a SpeedVac and the residue is dried under high vacuum for 1 h. The residue is then dissolved in 600 μl of dioxane with gentle warming in an ultrasonic bath and this solution is added very slowly with ultrasonication to 63 ml of 50 mM Tris/HCl, 150 mM NaCl, 2 mM EDTA buffer pH 7.3 at room temperature. The suspension is then ultrasonicated under an N2 atmosphere for 30 minutes in the Branson ultrasonic bath at about 50 watts, the temperature being kept at about 20° C.
The acceptor liposomes are obtained analogously from 86 mg of cholesteryl oleate, 20 mg of triolein and 100 mg of phosphatidylcholine dissolved in 1.2 ml of dioxane and 114 ml of the above buffer by ultrasonication at 50 watts (20° C.) for 30 minutes.
For testing, a test mix consisting of 1 part of above buffer, 1 part of donor liposomes and 2 parts of acceptor liposomes is used.
50 μl of test mix are treated with 48 μl of enriched CETP fraction (1-3 μg), obtained from human plasma by means of hydrophobic chromatography, and 2 μl of a solution of the substance to be investigated in DMSO and incubated at 37° C. for 4 h.
The change in the fluorescence at 485/535 nm is a measure of the CE transfer; the inhibition of the transfer in comparison to the control batch without substance is determined.

CETP [2] = target: T1, CETP; test: CETP-SPA test; format: biochemical; details: transfer of 3H-cholesterol ester from human HDL to biotinylated LDL; 37° C. for 18 h
Description: as §1
For testing of the CETP activity, the transfer of ^3H-cholesterol ester from human HD lipoproteins to biotinylated LD lipoproteins is measured. The reaction is ended by addition of streptavidin-SPA® beads (Amersham) and the transferred radioactivity is determined directly in a liquid scintillation counter.
In the test batch, 10 μl of HDL-3H-cholesterol ester (about 50 000 cpm) are incubated at 37° C. for 18 h with 10 μl of biotin-LDL (Amersham) in 50 mM Hepes/0.15 M NaCl/0.1% bovine serum albumin (RSA)/0.05% NaN3 pH 7.4 containing 10 μl of CETP (1 mg/ml) and 3 μl of a solution of the substance to be tested (dissolved in 10% DMSO/1% RSA). 200 μl of the SPA-streptavidin bead solution (TRKQ 7005) are then added, incubated further with shaking for 1 h and then measured in a scintillation counter. Corresponding incubations with 10 μl of buffer, 10 μl of CETP at 4° C. and 10 μl of CETP at 37° C. serve as controls.
The activity transferred in the control batches with CETP at 37° C. is rated as 100% transfer. The substance concentration at which this transfer is reduced to half is specified as the IC50 value.

Row | IC50 (CETP [1]) [nM] | IC50 (CETP [2]) [nM] | Structure (SMILES)
1 | 340 |  | CC1(C)C[C@H](O)c2c(cc(C3CCCC3)c([C@@H](O)c3ccc(C(F)(F)F)cc3)c2-c2ccc(F)cc2)O1 [Example 1, (4S)-7-Cyclopentyl-5-(4-fluorophenyl)-6-{(S)-hydroxy[4-(trifluoromethyl)phenyl]methyl}-2,2-dimethylchroman-4-ol]
2 | 90 | 62 | CC(C)c1cc2c(c(-c3ccc(F)cc3)c1C(=O)c1ccc(C(F)(F)F)cc1)[C@@H](O)CC(C)(C)O2 [Example 4, [(4S)-5-(4-Fluorophenyl)-4-hydroxy-7-isopropyl-2,2-dimethyl-3,4-dihydro-2H-chromen-6-yl][4-(trifluoromethyl)phenyl]methanone]
3 | 90 | 33 | CC(C)c1cc2c(c(-c3ccc(F)cc3)c1Cc1ccc(C(F)(F)F)cc1)[C@@H](O)CC(C)(C)O2 [Example 9, (4S)-5-(4-Fluorophenyl)-7-isopropyl-2,2-dimethyl-6-[4-(trifluoromethyl)benzyl]chroman-4-ol]
4 | 63 | 51 | CC(C)c1cc2c(c(-c3ccc(F)cc3)c1[C@@H](O)c1ccc(OC(F)(F)F)cc1)[C@@H](O)CC(C)(C)O2 [Example 11, (4S)-5-(4-Fluorophenyl)-6-{(S)-hydroxy[4-(trifluoromethoxy)phenyl]methyl}-7-isopropyl-2,2-di-methylchroman-4-ol]
5 | 792 |  | CC(C)c1cc2c(c(-c3ccccc3)c1C(=O)c1ccc(OC(F)(F)F)cc1)[C@@H](O)CC(C)(C)O2 [Example 18, [(4S)-4-Hydroxy-7-isopropyl-2,2-dimethyl-5-phenyl-3,4-dihydro-2H-chromen-6-yl][4-(trifluoromethoxy)phenyl]methanone]
6 | 49 |  | CC(C)c1cc2c(c(C3=CCCCC3)c1[C@@H](O)c1ccc(C(F)(F)F)cc1)[C@@H](O)CC(C)(C)O2 [Example 20, (4S)-5-Cyclohex-1-en-1-yl-6-{(S)-hydroxy[4-(trifluoromethyl)phenyl]methyl}-7-isopropyl-2,2-di-methylchroman-4-ol]
7 | 30 | 16 | CC(C)c1cc2c(c(C3CCCC3)c1[C@@H](O)c1ccc(C(F)(F)F)cc1)[C@@H](O)CC(C)(C)O2 [Example 24, (4S)-5-Cyclopent-1-yl-6-{(S)-hydroxy[4-(trifluoromethyl)phenyl]methyl}-7-isopropyl-2,2-dimethylchroman-4-ol]
8 | 48 |  | CC(C)c1cc2c(c(C3CCCC3)c1Cc1ccc(C(F)(F)F)cc1)[C@@H](O)CC(C)(C)O2 [Example 26, (4S)-5-Cyclopentyl-7-isopropyl-2,2-dimethyl-6-[4-(trifluoromethyl)benzyl]chroman-4-ol]
9 | 35 | 18 | CC(C)c1cc2c(c(-c3ccc(F)cc3)c1C(=O)c1ccc(C(F)(F)F)cc1)[C@@H](O)CC1(CCC1)O2 [Example 27, [(4S)-5-(4-Fluorophenyl)-4-hydroxy-7-isopropyl-3,4-dihydrospiro[chromen-2,1′-cyclobutan]-6-yl]-[4-(trifluoromethyl)phenyl]methanone]
10 |  | 400 | CC(C)(C)c1ccc([C@@H](O)c2c(C3CCCC3)cc3c(c2-c2ccc(F)cc2)[C@@H](O)CC2(CCC2)O3)cc1 [Example 49]
11 | 263 |  | CC(C)c1cc2c(c(-c3ccc(F)cc3)c1[C@H](O)c1ccc(C(F)(F)F)cc1)[C@@H](O)CC1(CC1)O2 [Example 56]

Second part, the molecule before the results:

Row | Structure (SMILES) | IC50 (CETP [1]) [nM] | IC50 (CETP [2]) [nM]
12 | CC(C)c1cc2c(c(-c3ccc(F)cc3)c1C(F)c1ccc(OC(F)(F)F)cc1)[C@@H](O)CC1(CCC1)O2 (mixture of isomers) [Example 40, (4S)-5-(4-Fluorophenyl)-6-{fluoro[4-(trifluoromethoxy)phenyl]methyl}-7-isopropyl-3,4-dihydrospiro[chromen-2,1′-cyclobutan]-4-ol] | 50 | 
13 | CC(C)c1cc2c(c(-c3ccc(F)cc3)c1[C@@H](O)c1ccc(C(F)(F)F)cc1)[C@@H](O)CC(C)(C)O2 [Example 5, (4S)-5-(4-Fluorophenyl)-6-{(S)-hydroxy[4-(trifluoromethyl)phenyl]methyl}-7-isopropyl-2,2-di-methylchroman-4-ol] | 35 | 29
14 | CC(C)c1cc2c(c(-c3ccc(F)cc3)c1[C@H](F)c1ccc(C(F)(F)F)cc1)[C@@H](O)CC(C)(C)O2 [Example 8, (4S)-5-(4-fluorophenyl)-6-{(R)-fluoro[4-(trifluoromethyl)phenyl]methyl}-7-isopropyl-2,2-dimethylchroman-4-ol] | 373 | 
15 | CC(C)c1cc2c(c(-c3ccc(F)cc3)c1C(=O)c1ccc(OC(F)(F)F)cc1)[C@@H](O)CC(C)(C)O2 [Example 10, [(4S)-5-(4-Fluorophenyl)-4-hydroxy-7-isopropyl-2,2-dimethyl-3,4-dihydro-2H-chromen-6-yl][4-(trifluoromethoxy)phenyl]methanone] | 93 | 
16 | CC(C)c1cc2c(c(-c3ccc(F)cc3)c1C(=O)c1ccc(C(C)(C)C)cc1)[C@@H](O)CC(C)(C)O2 [Example 14, (4-tert-Butylphenyl)[(4S)-5-(4-fluorophenyl)-4-hydroxy-7-isopropyl-2,2-dimethyl-3,4-dihydro-2H-chromen-6-yl]methanone] | 176 | 
17 | CC(C)c1cc2c(c(-c3ccc(F)cc3)c1[C@@H](O)c1ccc(C(C)(C)C)cc1)[C@@H](O)CC(C)(C)O2 [Example 15, (4S)-6-[(S)-(4-tert-Butylphenyl)(hydroxy)methyl]-5-(4-fluorophenyl)-7-isopropyl-2,2-dimethyl-chroman-4-ol] | 38 | 
18 | CC(C)c1cc2c(c(-c3ccc(F)cc3)c1Cc1ccc(C(C)(C)C)cc1)[C@@H](O)CC(C)(C)O2 [Example 17, (4S)-6-(4-tert-Butylbenzyl)-5-(4-fluorophenyl)-7-isopropyl-2,2-dimethylchroman-4-ol] | 70 | 
19 | CC(C)c1cc2c(c(C3=CCCCC3)c1C(=O)c1ccc(C(F)(F)F)cc1)[C@@H](O)CC(C)(C)O2 [Example 19, (5-Cyclohex-1-en-1-yl-4-hydroxy-7-isopropyl-2,2-dimethyl-3,4-dihydro-2H-chromen-6-yl)[4-(tri-fluoromethyl)phenyl]methanone] | 200 | 300
20 | CC(C)c1cc2c(c(C3=CCCC3)c1[C@@H](O)c1ccc(C(F)(F)F)cc1)[C@@H](O)CC(C)(C)O2 [Example 22, (4S)-5-Cyclopent-1-en-1-yl-6-{(S)-hydroxy[4-(trifluoromethyl)phenyl]methyl}-7-isopropyl-2,2-di-methylchroman-4-ol] | 51 | 57
21 | O[C@H]1CC2(CCC2)Oc2cc(C3CCCC3)c(C(F)c3ccc(OC(F)(F)F)cc3)c(-c3ccc(F)cc3)c21 (some centres unmarked) [Example 54] | 39 | 

From US8227511B2, “Substituted chromanol derivatives and their use” (Bayer Intellectual Property GmbH, priority 2006, dated 2012)
